Laboratory results taken from patent US7699801B2, “Advanced genetic vaccines” (priority 1995, dated 2010).

Tested on: human carcino embryonic antigen (CEA)
Assay: CEA-specific IgG1/IgG2a serum antibody ELISA after particle-mediated DNA immunization
Type: in vivo, mouse
Details: Balb/c mice, sera four weeks after treatment
Source text: The adjuvant and the nucleic acid molecule containing the sequence encoding the antigen of interest were co-administered via particle-mediated delivery using a gene gun. The particular antigen used for this example was the human carcino embryonic antigen (“CEA”), a human tumor antigen widely used in experiments investigating cancer therapeutic treatments. […] Without an adjuvant, Th2 type CEA-specific antibodies (IgG1) are detected at levels more than twenty-fold higher than the levels of Th1 type CEA-specific antibodies (IgG2a) in Balb/c mice.
For this protocol, a plasmid construct containing a coding region for the CEA antigen under the control of the cytomegalovirus immediate early promoter (CMV) with the CMV intron A between the promoter and the coding region was used. To form the composition, 64 μg of the plasmid, which was designated WRG7083, in 120 μL of water was added to 32 milligrams of 0.9 micron gold beads in an Eppendorf tube, i.e., 2 μg DNA/mg gold. Next, 13.5 μL of ammonium acetate solution and 135 μL of isopropanol were added, and the tube was vortexed briefly. The mixture was incubated for 15 minutes at −20° C. to precipitate the DNA onto the gold. The DNA coated beads were pelleted by a ten second spin and the supernatants were removed. The gold/DNA pellets were washed four times by vortexing in 1 mL ethanol, microfuging ten seconds, and removing supernatants. […]

Sequence of human carcino embryonic antigen (CEA) (P06731 35-676): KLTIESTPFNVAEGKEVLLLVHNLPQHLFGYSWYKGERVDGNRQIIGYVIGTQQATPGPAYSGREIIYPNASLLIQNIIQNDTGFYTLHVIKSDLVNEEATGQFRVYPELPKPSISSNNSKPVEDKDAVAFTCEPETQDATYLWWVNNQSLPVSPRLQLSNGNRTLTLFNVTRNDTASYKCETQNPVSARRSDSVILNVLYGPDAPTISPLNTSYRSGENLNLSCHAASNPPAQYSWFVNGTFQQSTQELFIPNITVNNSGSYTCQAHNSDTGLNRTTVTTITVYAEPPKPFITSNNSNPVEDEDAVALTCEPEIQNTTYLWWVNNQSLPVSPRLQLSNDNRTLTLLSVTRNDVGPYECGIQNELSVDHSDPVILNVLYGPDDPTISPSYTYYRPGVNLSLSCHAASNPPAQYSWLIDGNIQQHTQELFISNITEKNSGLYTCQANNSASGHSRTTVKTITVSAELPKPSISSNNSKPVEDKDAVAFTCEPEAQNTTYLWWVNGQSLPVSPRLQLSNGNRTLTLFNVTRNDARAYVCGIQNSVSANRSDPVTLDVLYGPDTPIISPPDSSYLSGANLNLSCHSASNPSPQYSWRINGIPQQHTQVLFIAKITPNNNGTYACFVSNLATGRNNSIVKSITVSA

Substance: monophosphoryl lipid A [MPL]
- ratio of IgG1 to IgG2a CEA-specific antibodies (0.2 mg/mL MPL on WRG7083 DNA-coated gold particles, gene gun delivery): 4.5
- ratio of IgG1 to IgG2a CEA-specific antibodies (MPL stock swabbed on skin prior to gene gun delivery of WRG7083 DNA): about 4.0
